The subject of assay [1] is chick chorioallantoic membrane (CAM). Put plainly: Chick chorioallantoic membrane (CAM) assay of angiogenesis. Type of assay: in vivo. The following applies: 10^−7-10^−9 M. On the procedure:
Chorioallantoic membrane (CAM) Model of Angiogenesis: In vivo Neovascularization was examined by methods described previously. 9-12 Ten-day-old chick embryos were purchased from SPAFAS (Preston, Conn.) and incubated at 37° C. with 55% relative humidity. A hypodermic needle was used to make a small hole in the shell concealing the air sac, and a second hole was made on the broad side of the egg, directly over an avascular portion of the embryonic membrane that was identified by candling. A false air sac was created beneath the second hole by the application of negative pressure at the first hole, causing the CAM to separate from the shell. A window approximately 1.0 cm 2 was cut in the shell over the dropped CAM with a small-crafts grinding wheel (Dremel, division of Emerson Electric Co.), allowing direct access to the underlying CAM. FGF2 (1 μg/mL) was used as a standard proangiogenic agent to induce new blood vessel branches on the CAM of 10-day-old embryos. Sterile disks of No. 1 filter paper (Whatman International) were pretreated with 3 mg/mL cortisone acetate and 1 mmol/L PTU and air dried under sterile conditions. Thyroid hormone, hormone analogues, FGF2 or control solvents, and inhibitors were then applied to the disks and the disks allowed to dry. The disks were then suspended in PBS and placed on growing CAMs. […] At 24 hours, the MAPK cascade inhibitor PD 98059 was also added to CAMs topically by means of the filter disks.
After incubation at 37° C. with 55% relative humidity for 3 days, the CAM tissue directly beneath each filter disk was resected from control and treated CAM samples. Tissues were washed 3× with PBS, placed in 35-mm Petri dishes (Nalge Nunc), and examined under an SV6 stereomicroscope (Zeiss) at ×50 magnification. Digital images of CAM sections exposed to filters were collected using a 3-charge-coupled device color video camera system (Toshiba) and analyzed with Image-Pro software (Media Cybernetics). The number of vessel branch points contained in a circular region equal to the area of each filter disk were counted. One image was counted in each CAM preparation, and findings from 8 to 10 CAM preparations were analyzed for each treatment condition (thyroid hormone or analogues, FGF2, FGF2 antibody, PD 98059). In addition, each experiment was performed 3 times. The resulting angiogenesis index is the mean±SEM of new branch points in each set of samples.
Ten-day-old chick embryos were purchased £tom SPAFAS (Preston, Conn.) and were incubated at 37° C. with 55% relative humidity. A hypodermic needle was used to make a small hole in the blunt end of the egg and a second hole was made on the broad side of the egg, directly over an avascular portion of the embryonic membrane. Mild suction was applied to the first hole to displace the air sac and drop the CAM away from the shell. Using a Dremel model craft drill (Dremel, Racine, Wis.), a approx. 1.0 cm^2 window was cut in the shell over the false air sac, allowing access to the CAM. Sterile disks of No. 1 filter paper (Whatman, Clifton, N.J.) were pretreated with 3 mg/ml cortisone acetate and 1 mMm propylthiouracil and air dried under sterile conditions. […] The disks were then suspended in PBS and placed on growing CAMS. After incubation for 3 days, the CAM beneath the filter disk was resected and rinsed with PBS. Each membrane was placed in a 35 mm Petri dish and examined under an SV6 stereo-microscope at 50× magnification. Digital images were captured and analyzed with Image-Pro software (Mediacybemetics). The number of vessel branch points contained in a circular region equal to the filter disk were counted. One image from each of 8-10 CAM preparations for each treatment condition was counted, and in addition each experiment was performed 3 times.
Ten-day-old chick embryos were purchased from SPAFAS (Preston, Conn.) and were incubated at 37° C. with 55% relative humidity. Chick CAM assays were performed as previously described.

For assay [2], the system named is phosphorylated ERK1/2 in ECV304 endothelial cells. Put plainly: MAPK (ERK1/2) activation in ECV304 cells, nuclear pERK1/2 immunoblot. Type of assay: cell-based. The following applies: T4 10^−7 mol/L, 15 minutes to 6 hours. On the procedure: ECV304 endothelial cells were cultured in M199 medium with 0.25% hormone-depleted serum 13 for 2 days. […] Nuclear fractions were pre-pared from all samples by our method reported previously, the proteins separated by polyacrylamide gel electrophoresis, and transferred to membranes for immunoblotting with antibody to phosphorylated ERK 1/2.
Background: A western blot detects proteins with antibodies after separation by electrophoresis.

The target of assay [3] is T1, purified αVβ3 integrin (Homo sapiens, UniProt P05106+P06756).
T1 construct: purchased
T1 sequence (P06756 31-889 limits assumed): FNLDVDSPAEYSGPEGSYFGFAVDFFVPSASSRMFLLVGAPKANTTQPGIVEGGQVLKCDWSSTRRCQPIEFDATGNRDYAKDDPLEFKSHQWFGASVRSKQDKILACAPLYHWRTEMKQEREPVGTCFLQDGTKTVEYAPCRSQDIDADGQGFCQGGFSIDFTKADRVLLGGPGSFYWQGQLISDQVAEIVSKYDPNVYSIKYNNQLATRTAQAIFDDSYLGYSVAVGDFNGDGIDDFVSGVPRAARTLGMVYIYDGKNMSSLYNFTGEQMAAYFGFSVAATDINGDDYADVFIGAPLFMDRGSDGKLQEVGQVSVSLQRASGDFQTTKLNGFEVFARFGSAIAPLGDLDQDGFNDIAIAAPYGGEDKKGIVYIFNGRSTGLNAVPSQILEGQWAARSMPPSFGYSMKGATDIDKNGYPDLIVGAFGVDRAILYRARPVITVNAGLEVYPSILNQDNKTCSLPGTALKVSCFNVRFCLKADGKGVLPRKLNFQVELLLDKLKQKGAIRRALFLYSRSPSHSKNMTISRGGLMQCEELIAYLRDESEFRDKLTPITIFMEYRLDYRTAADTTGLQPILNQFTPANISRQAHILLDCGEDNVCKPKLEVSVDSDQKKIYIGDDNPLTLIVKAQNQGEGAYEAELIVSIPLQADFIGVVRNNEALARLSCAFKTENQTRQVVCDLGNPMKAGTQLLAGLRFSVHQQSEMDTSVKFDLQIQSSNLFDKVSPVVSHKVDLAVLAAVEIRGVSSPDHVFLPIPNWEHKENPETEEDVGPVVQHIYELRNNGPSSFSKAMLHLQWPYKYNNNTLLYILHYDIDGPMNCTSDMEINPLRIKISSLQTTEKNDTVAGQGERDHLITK
T1 sequence (P06756 891-1048 partner limits assumed): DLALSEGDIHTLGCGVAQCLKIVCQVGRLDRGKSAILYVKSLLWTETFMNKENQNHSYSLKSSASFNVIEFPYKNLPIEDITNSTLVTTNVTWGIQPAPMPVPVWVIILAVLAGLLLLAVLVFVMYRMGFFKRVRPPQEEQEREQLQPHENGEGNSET
T1 sequence (P05106 27-788): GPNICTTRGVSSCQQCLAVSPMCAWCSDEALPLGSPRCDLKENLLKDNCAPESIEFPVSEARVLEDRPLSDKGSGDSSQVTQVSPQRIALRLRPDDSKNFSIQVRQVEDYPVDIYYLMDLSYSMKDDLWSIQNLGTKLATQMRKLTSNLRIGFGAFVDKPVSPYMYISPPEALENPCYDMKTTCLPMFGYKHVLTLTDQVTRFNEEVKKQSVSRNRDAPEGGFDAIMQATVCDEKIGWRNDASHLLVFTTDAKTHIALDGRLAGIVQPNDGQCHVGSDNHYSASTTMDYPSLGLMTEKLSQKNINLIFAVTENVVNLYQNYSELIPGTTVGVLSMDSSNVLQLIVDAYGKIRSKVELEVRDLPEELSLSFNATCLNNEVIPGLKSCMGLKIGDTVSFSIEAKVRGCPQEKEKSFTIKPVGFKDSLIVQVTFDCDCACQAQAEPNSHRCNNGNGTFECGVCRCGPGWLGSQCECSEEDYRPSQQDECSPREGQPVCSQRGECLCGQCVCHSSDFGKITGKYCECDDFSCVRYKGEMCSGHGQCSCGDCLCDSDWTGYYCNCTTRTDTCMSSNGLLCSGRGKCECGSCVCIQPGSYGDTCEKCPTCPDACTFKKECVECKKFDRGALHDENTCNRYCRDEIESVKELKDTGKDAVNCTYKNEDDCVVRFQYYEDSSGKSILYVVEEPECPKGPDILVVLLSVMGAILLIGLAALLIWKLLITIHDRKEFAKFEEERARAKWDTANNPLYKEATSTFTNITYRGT
Put plainly: Radioligand binding assay, [125I]-T4 to purified integrin. As to the method: Two μg of purified αVβ3 was mixed with indicated concentrations of test compounds and allowed to incubate for 30 min at room temperature. […] The samples were mixed with sample buffer (50% glycerol, 0.1M Tris-HCl, pH 6.8, and bromophenol blue) and runout on a 5% basic-native gel for 24 h at 45 mA in the cold. The apparatus was disassembled and the gels were placed on filter paper, wrapped in plastic wrap, and exposed to film. Band intensity was determined using the VersaDoc 5000 Imaging system.

The subject of assay [4] is EC migration toward the extracellular matrix protein vitronectin. Nature of the assay: Cellular migration assay toward vitronectin (chemotaxis chamber). Type of assay: cell-based. Particulars: hormone 0.1 uM in upper chamber, vitronectin 25 ug in lower chamber.
Procedure: These assays were performed using a Neuroprobe 96 well disposable chemotaxis chamber with an 8 μm pore size. This chamber allowed for quantitation of cellular migration towards a gradient of either vitronectin or osteopontin. Cultured cells were removed following a standardized method using EDTA/Trypsin (0.01%/0.025%). Following removal, the cells were washed twice and resuspended (2×10^6/ml) in EBM (Endothelial cell basal media, Clonetics Inc.). Add either vitronectin or osteopontin (33 μl) at 0.0125-100 μg/ml to the lower wells of a disposable chemotaxis chamber, and then assemble using the preframed filter. The cell suspension (45 μl) was added to a polypropylene plate containing 5 μl of test agent at different concentrations and incubated for 10 minutes at 22° C. Add 25 μl of cell/test agent suspension to the upper filter wells then incubate overnight (22 hours at 37° C.) in a humidified cell culture incubator. After the overnight incubation, non-migrated cells and excess media were gently removed using a 12 channel pipette and a cell scraper. The filters were then washed twice in PBS (no Ca^+2 or Mg^+2) and fixed with 1% formaldehyde. Membranes of migrated cells were permeated with Triton X-100 (0.2%) then washed 2-3 times with PBS. […] Chemotaxis was quantitatively determined by fluorescence detection using a Cytofluor II (530 excitation/590 emission).

As usually defined, the EC50 is the concentration at which the effect is half-maximal. A low value points to a more potent agent. As a reminder, the Kd is the free concentration of one partner at which half of the binding sites on the other are occupied at equilibrium, for simple one-to-one binding. Read a high Kd as weaker binding.

With `N[C@@H](Cc1cc(I)c(Oc2cc(I)c(O)c(I)c2)c(I)c1)C(=O)O` [T4, L-thyroxine], the “promotion of generation of new blood vessels from existing vessels” value in assay [1] is on record as “two- to three-fold”. Moreover, the “time of maximal phosphorylation and nuclear translocation of ERK1/2” value in assay [2] was 30 min. For the same compound, the “reduction of [125I]T4 binding to purified αVβ3” value in assay [3] (competitor 10^−4 M) is listed as “almost completely displaced”; in assay [3] (competitor 10^−5 M), “maximal”; in assay [3] (competitor 10^−6 M (total)), 58%; in assay [3] (competitor 10^−7 M (total)) it was 13%. The EC50 in assay [3] (non-linear regression) stood at 0.371 nM. Moreover, in assay [3] (non-linear regression), the Kd came out at 0.333 nM. Also, in assay [4], the “Mean EC Migration (Fluorescence Units) + SD” value is reported as 13,083 ± 276 Fluorescence Units.

(Values after patent US20090022806A1, “Nanoparticle and polymer formulations for thyroid hormone analogs, antagonists and formulations and uses thereof” (priority 2006, published 2009).)
